How the values were obtained:
[1] = system: NK-92 (IL-2 2.5 ng/mL); assay: drug sensitivity score (DSS) (DSS units); higher = more sensitive; extreme values may be limits of the assay; details: 72 h
[2] = system: normal primary NK cells, pool 1 (3 donors) (IL-2 2.5 ng/mL); assay: as above; details: 72 h
[3] = system: normal primary NK cells, pool 3 (3 donors) (IL-2 2.5 ng/mL); assay: as above; details: 72 h
[4] = system: IMC-1 (IL-2 20 ng/mL); assay: as above; details: 72 h
[5] = system: normal primary NK cells, pool 2 (3 donors) (IL-2 2.5 ng/mL); assay: as above; details: 72 h
[6] = system: NKL (IL-2 2.5 ng/mL); assay: as above; details: 72 h
[7] = system: KAI3 (IL-2 2.5 ng/mL); assay: as above; details: 72 h
[8] = system: normal primary NK cells, pool 1 (3 donors), resting (IL-2 0 ng/mL); assay: as above; details: 72 h
[9] = system: SNK-6 (IL-2 2.5 ng/mL); assay: as above; details: 72 h
[10] = system: DERL-7 (IL-2 2.5 ng/mL); assay: as above; details: 72 h
[11] = system: YT (IL-2 2.5 ng/mL); assay: as above; details: 72 h
[12] = system: NK-YS (IL-2 2.5 ng/mL); assay: as above; details: 72 h
[13] = system: KHYG-1 (IL-2 2.5 ng/mL); assay: as above; details: 72 h
[14] = system: NK-92 (IL-2 2.5 ng/mL); assay: percent inhibition of viability; higher = more inhibition; details: 72 h
[15] = system: normal primary NK cells, pool 1 (3 donors) (IL-2 2.5 ng/mL); assay: as above; details: 72 h
[16] = system: normal primary NK cells, pool 3 (3 donors) (IL-2 2.5 ng/mL); assay: as above; details: 72 h
[17] = system: IMC-1 (IL-2 20 ng/mL); assay: as above; details: 72 h
[18] = system: normal primary NK cells, pool 2 (3 donors) (IL-2 2.5 ng/mL); assay: as above; details: 72 h
[19] = system: NKL (IL-2 2.5 ng/mL); assay: as above; details: 72 h
[20] = system: KAI3 (IL-2 2.5 ng/mL); assay: as above; details: 72 h
[21] = system: normal primary NK cells, pool 1 (3 donors), resting (IL-2 0 ng/mL); assay: as above; details: 72 h
[22] = system: SNK-6 (IL-2 2.5 ng/mL); assay: as above; details: 72 h
[23] = system: DERL-7 (IL-2 2.5 ng/mL); assay: as above; details: 72 h
[24] = system: YT (IL-2 2.5 ng/mL); assay: as above; details: 72 h
[25] = system: NK-YS (IL-2 2.5 ng/mL); assay: as above; details: 72 h
[26] = system: KHYG-1 (IL-2 2.5 ng/mL); assay: as above; details: 72 h
[27] = system: normal NK cells expanded with K562-aAPC; assay: as above; details: 72 h, IL-2 2.5 ng/mL
Protocol: (§1)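 Drug sensitivity and resistance testing on K562-aAPC-expanded normal NK cells: 5 concentrations (10-fold steps over a 10,000-fold range), 72 h at 37 °C, viability by CellTiter-Glo normalised to DMSO and benzethonium chloride controls; DSS from the fitted curve.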

[28] = system: normal NK cells expanded with K562-aAPC; assay: drug sensitivity score (DSS) (DSS units); higher = more sensitive; extreme values may be limits of the assay; details: 72 h; IL-2 2.5 ng/mL
Protocol: as §1

CCn1c(-c2nonc2N)nc2c(C#CC(C)(C)O)ncc(OC[C@H]3CCCNC3)c21 (max concentration tested 10000 nM)
Details | drug sensitivity score
[1] | 0.93
[2] | 5.8
[3] | 5.55
[4] | 0
[5] | 5.23
[6] | 0
[7] | 0
[8] | 7.29
[9] | 0
[10] | 13.9
[11] | 0
[12] | 0
[13] | 0
[28] | 1.58

percent inhibition of viability [%]
Details | 1 nM | 10 nM | 100 nM | 1000 nM | 10000 nM
[14] | -4.48 | -3.46 | -8.79 | -1.49 | 26.3
[15] | -8.01 | -9.66 | 4.32 | 9.43 | 76.3
[16] | -10.1 | -4.39 | -9.15 | 11.5 | 66.5
[17] | -5.57 | 1.4 | -4.57 | -6.32 | -11.7
[18] | -2.46 | -9.24 | -1.71 | 8.35 | 69.8
[19] | -5.47 | -17.8 | -8.99 | 0.96 | 9.13
[20] | 0.15 | -2.81 | 1.43 | 5.52 | -1.32
[21] | -12.7 | -5.26 | 17.9 | 18.4 | 83.5
[22] | 1.15 | 26.6 | -2.76 | -11.1 | -25.3
[23] | -2.25 | 7.79 | 17.3 | 63.7 | 76.9
[24] | -1.14 | -1.15 | 0.26 | 5.9 | 9.45
[25] | -2.15 | 0.74 | -0.26 | 2.64 | -8.44
[26] | -3.45 | -0.24 | -0.07 | 6.49 | 7.82
[27] | -1.22 | -3.93 | -1.94 | 9.38 | 20.1

O=C1NC(=O)/C(=C/c2ccc3nccc(-c4ccncc4)c3c2)S1 (max concentration tested 10000 nM)
Details | drug sensitivity score
[1] | 6.85
[2] | 6.93
[3] | 6.25
[4] | 1.19
[5] | 8.23
[6] | 10.6
[7] | 7.69
[8] | 14.1
[9] | 7.19
[10] | 12.7
[11] | 12.1
[12] | 9.16
[13] | 10.3
[28] | 7.25

percent inhibition of viability [%]
Details | 1 nM | 10 nM | 100 nM | 1000 nM | 10000 nM
[14] | -4.72 | -6.37 | -0.26 | 24.6 | 63.5
[15] | -6.7 | 13.9 | 10.7 | 28.1 | 58.9
[16] | -4.27 | 3.99 | 9.93 | 15.9 | 69.4
[17] | -1.41 | -1.05 | 0.35 | -13.3 | 36.1
[18] | -5.69 | 2.64 | 12.6 | 32.4 | 82.4
[19] | -16.6 | -12.9 | 3.48 | 52.1 | 76.4
[20] | 4.6 | -4.46 | 10.8 | 33.3 | 66
[21] | 7.14 | 23.7 | 24.7 | 33.3 | 68.1
[22] | 7.06 | 2.93 | 5.43 | 30.6 | 67.5
[23] | -4.4 | 4.35 | 9.03 | 60.2 | 88.2
[24] | -1.99 | -2.62 | 7.22 | 58.7 | 82.4
[25] | -5.37 | -5.14 | 5.36 | 42.1 | 74.2
[26] | -3.03 | -2.9 | 7.97 | 47.8 | 78.5
[27] | -7.65 | -6.22 | -2.48 | 25.2 | 68.2

NCC(=O)Nc1ccc(-n2nc(C(F)(F)F)cc2-c2ccc3c(ccc4ccccc43)c2)cc1 (max concentration tested 25000 nM)
Details | drug sensitivity score
[1] | 8.05
[2] | 0.67
[3] | 6.06
[4] | 8.71
[5] | 6.08
[6] | 6.99
[7] | 8.11
[8] | 1.49
[9] | 9.36
[10] | 1.36
[11] | 7.45
[12] | 12.3
[13] | 11.9
[28] | 7.63

percent inhibition of viability [%]
Details | 2.5 nM | 25 nM | 250 nM | 2500 nM | 25000 nM
[14] | -3.92 | -7.91 | 18.1 | 14.3 | 106
[15] | 4.23 | -5.3 | 6.37 | -4.79 | 24.2
[16] | -4.48 | -1.93 | 9.24 | 3.09 | 101
[17] | 1.94 | 6.76 | 5.99 | 19.6 | 101
[18] | -4.35 | -2.12 | 12.8 | 2.37 | 102
[19] | 9.41 | 11.2 | 10.1 | 18.2 | 76.8
[20] | 13.1 | 14.3 | 13.5 | 14.9 | 104
[21] | -7.15 | -17.6 | -5.36 | -14.6 | 41.8
[22] | 2.2 | 12.3 | 18 | 28 | 101
[23] | -6.63 | 0.68 | 3.86 | -3.39 | 34.2
[24] | 8.95 | 9.77 | 11.9 | 10.6 | 104
[25] | 2.51 | 6.9 | 13.3 | 53.1 | 101
[26] | 9.05 | 11.9 | 21.5 | 43.8 | 84.5
[27] | 1.57 | 3.13 | 3.22 | 12.5 | 101
